Test results: patent US20250326748A1, “COMPOUNDS AND METHODS FOR MODULATING SPLICING” (REMIX THERAPEUTICS INC., priority 2022, published 2025)
Structures can show the parent of a compound that is named as a salt. Where two headings read alike, the source gives them in different places.

Tests used:
MYB mRNA = experiment: Splicing RT-qPCR assay, MYB canonical (CJ) and alternative (AJ) junction mRNA; assay type: cell-based, human; conditions: Homo sapiens; for IC50: canonical junction mRNA; for AC50: alternative junction mRNA, read-out: MYB AJ (AC50, increase in AJ mRNA)
Experimental: (§1) Compounds described herein were used to modulate RNA transcript abundance in cells. The expression of a target mRNA was measured by detecting the formation of an exon-exon junction in the canonical transcript (CJ). A compound mediated exon-inclusion event was detected by observing an increase in formation of a new junction with an alternative exon (AJ). Real-time qPCR assays were used to detect these splicing switches and interrogate the potency of various compounds towards different target genes. A high-throughput real time quantitative PCR (RT-qPCR) assay was developed to measure these two isoforms of the mRNA (CJ and AJ) for exemplary genes, such as HTT, SMN2, and MYB, together with a control housekeeping gene, GAPDH or GUSB or PPIA, used for normalization. Briefly, the A673 or K562 cell line was treated with various compounds described herein (e.g., compounds of Formula (D). After treatment, the levels of the HTT, MYB, or SMN2 mRNA targets were determined from each sample of cell lysate by cDNA synthesis followed by qPCR.
(§2) • Cells-to-CT 1-step kit: ThermoFisher A25602, Cells-to-CT lysis reagent: ThermoFisher 4391851C, TaqMan™ Fast Virus 1-Step Master Mix: ThermoFisher 4444436 • GAPDH: VIC-PL, ThermoFisher 4326317E (Assay: Hs99999905_m1)—used for K562/suspension cell lines • GUSB: VIC-PL, ThermoFisher 4326320E (Assay: Hs99999908_m1)—used for K562/suspension cell lines • PPIA: VIC-PL, ThermoFisher 4326316E (Assay: Hs99999904_m1)—used for A673/adherent cell lines
(§3) The A673 cell line was cultured in DMEM with 10% FBS. Cells were diluted with full growth media and plated in a 96-well plate (15,000 cells in 100 ul media per well). The plate was incubated at 37° C. with 5% CO2 for 24 hours to allow cells to adhere. An 11-point 3-fold serial dilution of the compounds was made in DMSO then diluted in media in an intermediate plate. Compounds were transferred from the intermediate plate to the cell plate with the top dose at a final concentration of 10 uM in the well. Final DMSO concentration was kept at or below 0.25%. The cell plate was returned to the incubator at 37° C. with 5% CO2 for an additional 24 hours.
(§4) The K562 cell line was cultured in IMDM with 10% FBS. For K562, cells were diluted with full growth media and plated in either a 96-well plate (50,000 cells in 50 uL media per well) or a 384-well plate (8,000-40,000 cells in 45 uL media per well). An 11-point 3-fold serial dilution of the compounds were made in DMSO then diluted in media in an intermediate plate. Compound was transferred from the intermediate plate to the cell plate with the top dose at a final concentration of 10 uM in the well. Final DMSO concentration was kept at or below 0.25%. Final volume was 100 uL for 96-well plate and 50 uL for 384-well plate. The cell plate was then placed in an incubator at 37° C. with 5% CO2 for 24 hours.
(§5) The cells were then gently washed with 50 uL-100 uL cold PBS before proceeding to addition of lysis buffer. 30 uL-50 μL of room temperature lysis buffer with DNAse I (and optionally RNAsin) was added to each well. Cells were shaken/mixed thoroughly at room temperature for 5-10 minutes for lysis to take place and then 3 uL-5 μL of room temperature stop solution was added and wells were shaken/mixed again. After 2-5 minutes, the cell lysate plate was transferred to ice for RT-qPCR reaction setup. The lysates could also be frozen at −80° C. for later use.
(§6) In some cases, a direct lysis buffer was used. An appropriate volume of 3× lysis buffer (10 mM Tris, 150 mM NaCl, 1.5%-2.5% Igepal and 0.1-1 U/uL RNAsin, pH 7.4) was directly added to either K562 or A673 cells in media and mixed by pipetting 3 times. The plates were then incubated at room temperature with shaking/rocking for 20-50 minutes to allow for lysis to take place. After this time, the cell lysate plate was transferred to ice to set up for the RT-qPCR reactions. The lysates could also be frozen at −80° C. for later use. […]

K562 cells = experiment: Cell viability, Cell Titer Glo 2.0 assay, K562; conditions: 72 hours
HTT mRNA = experiment: Splicing RT-qPCR assay, HTT canonical (CJ) and alternative (AJ) junction mRNA; assay type: cell-based, human; conditions: Homo sapiens; for IC50: canonical junction mRNA; for AC50: alternative junction mRNA, read-out: HTT AJ (AC50, increase in AJ mRNA)
Experimental: as §1, §2, §3, §4, §5, §6

SMN2 mRNA = experiment: Splicing RT-qPCR panel, SMN2 canonical junction (CJ) mRNA; assay type: cell-based, human; conditions: Homo sapiens, read-out: SMN2 CJ (decrease in CJ mRNA levels, IC50)
Experimental: as §1, §3, §4, §5
(§7) In some cases, a direct lysis buffer was used. An appropriate volume of 3× lysis buffer (10 mM Tris, 150 mM NaCl, 1.5%-2.5% Igepal and 0.1-1 U/uL RNAsin, pH 7.4) was directly added to either K562 or A673 cells in media and mixed by pipetting 3 times. The plates were then incubated at room temperature with shaking/rocking for 20-50 minutes to allow for lysis to take place. After this time, the cell lysate plate was transferred to ice to set up for the RT-qPCR reactions. The lysates could also be frozen at −80° C. for later use.
(§8) To set up 10 uL RT-qPCR reactions, cell lysates were transferred to 384-well qPCR plates containing the master mix according to the table below. The plates were sealed, gently vortexed, and spun down before the run. The volumes were adjusted accordingly in some instances where the reaction was carried in 20 μL. The table below summarizes the components of the RT-qPCR reactions:
(§9) The RT-qPCR reaction was performed using a QuantStudio (ThermoFisher) under the following fast cycling conditions. […]

Target C mRNA = experiment: Splicing RT-qPCR panel, Target C canonical junction (CJ) mRNA; assay type: cell-based, human; conditions: Homo sapiens, read-out: Target C CJ (decrease in CJ mRNA levels, IC50)
Experimental: as §1, §3, §4, §5, §7, §8, §9

[1] = qPCR panel, read-out: MYB CJ (decrease in CJ mRNA levels, IC50)
[2] = RT-qPCR, A673 or K562 cells, 24 hours treatment
[3] = RT-qPCR, A673 or K562 cells, 24 hours treatment, read-out: MYB CJ (IC50, decrease in CJ mRNA)
[4] = 24 h, RT-qPCR, A673 or K562 cells, 24 hours treatment, read-out: HTT CJ (IC50, decrease in CJ mRNA)
[5] = qPCR panel, read-out: HTT CJ (decrease in CJ mRNA levels, IC50)

SMILES	IC50 (MYB mRNA; [1])	AC50 (MYB mRNA; [2])	IC50 (MYB mRNA; [3])	Effect on Cell Viability, K562 (K562 cells)	IC50 (HTT mRNA; [4])	IC50 (HTT mRNA; [5])	AC50 (HTT mRNA; [2])	IC50 (SMN2 mRNA)	IC50 (Target C mRNA)
Cc1cn2nc(-c3cc(Cl)c4cc(N5C[C@H](C)NC6(CC6)C5)cnc4n3)cc(C)c2n1 [Compound 400]	0.1 to 1 µM	0.1 to 1 µM	0.1 to 1 µM	C (1000-9999 nM)	1 to 10 µM	1 to 10 µM	1 to 10 µM	< 0.1 µM	1 to 10 µM
Cc1cn2cc(-c3cc(Cl)c4cc(N5C[C@H](C)NC6(CC6)C5)cnc4n3)cc(F)c2n1 [Compound 401]	0.1 to 1 µM	0.1 to 1 µM	0.1 to 1 µM	C (1000-9999 nM)	1 to 10 µM	1 to 10 µM	1 to 10 µM	< 0.1 µM	1 to 10 µM
Cc1c(O)c(-c2cc(Cl)c3cc(N4C[C@H](C)NC5(CC5)C4)cnc3n2)cc2cn(C)nc12 [Compound 398]	< 0.1 µM	< 0.1 µM	< 0.1 µM	B (100-1000 nM)	0.1 to 1 µM	0.1 to 1 µM	0.1 to 1 µM	< 0.1 µM	> 10 µM
Cc1cn2cc(-c3cc(Cl)c4cc(N5C[C@@H](C)NC6(CC6)C5)cnc4n3)cc(F)c2n1 [Compound 402]	0.1 to 1 µM	0.1 to 1 µM	0.1 to 1 µM	C (1000-9999 nM)	> 10 µM	> 10 µM	> 10 µM	< 0.1 µM	> 10 µM
COc1nc(-c2cc3cn(C)nc3c(C)c2O)nc2ncc(N3C[C@@H](C)N[C@@H](C)C3)cc12 [Compound 369]	0.1 to 1 µM	0.1 to 1 µM	0.1 to 1 µM	B (100-1000 nM)	1 to 10 µM	1 to 10 µM	1 to 10 µM	< 0.1 µM	1 to 10 µM
Cc1cn2cc(-c3ccc4cc(N(C)[C@@H]5CCNC5)cnc4n3)cc(F)c2n1 [Compound 361, 7-{8-fluoro-2-methylimidazo[1,2-a]pyridin-6-yl}-N-methyl-N-[(3R)-pyrrolidin-3-yl]-1,8-naphthyridin-3-amine hydrochloride]	> 10 µM	> 10 µM	> 10 µM	C (1000-9999 nM)	> 10 µM	> 10 µM	> 10 µM	> 10 µM	> 10 µM
C[C@@H]1CN(c2cnc3nc(-c4cc(F)c5nn(C)cc5c4)cc(Cl)c3c2)CC2(CC2)N1 [Compound 397]	0.1 to 1 µM	1 to 10 µM	0.1 to 1 µM	C (1000-9999 nM)	1 to 10 µM	1 to 10 µM	> 10 µM	< 0.1 µM	> 10 µM
Cc1c(O)c(-c2cc(Cl)c3cc(N4C[C@@H](C)NC5(CC5)C4)cnc3n2)cc2cn(C)nc12 [Compound 399]	< 0.1 µM	< 0.1 µM	< 0.1 µM	B (100-1000 nM)	1 to 10 µM	1 to 10 µM	> 10 µM	< 0.1 µM	> 10 µM
CN(c1cnc2nc(-c3cc(F)c4nn(C)cc4c3)ccc2c1)[C@@H]1CCNC1 [Compound 366, 7-(7-fluoro-2-methylindazol-5-yl)-N-methyl-N-[(3R)-pyrrolidin-3-yl]-1,8-naphthyridin-3-amine]	1 to 10 µM	0.1 to 1 µM	1 to 10 µM	C (1000-9999 nM)	> 10 µM	> 10 µM	> 10 µM	0.1 to 1 µM	> 10 µM
C[C@H]1CN(c2cnc3nc(-c4cc(F)c5nn(C)cc5c4)ccc3c2)CCN1 [Compound 373, 2-(7-fluoro-2-methylindazol-5-yl)-6-[(3S)-3-methylpiperazin-1-yl]-1,8-naphthyridine]	0.1 to 1 µM	0.1 to 1 µM	0.1 to 1 µM	B (100-1000 nM)	1 to 10 µM	1 to 10 µM	1 to 10 µM	< 0.1 µM	1 to 10 µM
